The values that follow come from patent publication US20070092551A1, “Therapeutic agent” (TAKARA BIO INC., priority 2003, published 2007).

The subject of experiment [1] is 3T3-L1 cells. In words: Induction of adipocyte differentiation (amount of triglyceride biosynthesis). The conditions noted are these: Mus musculus, 3T3-L1, X=(S−N)/(P−N) of amount of triglyceride, P=insulin positive control, read-out: Action for Induction of Differentiation. In kind it is cell-based. Here is the method:
Induction of adipocyte differentiation was carried out by partially modifying the above-mentioned method of Rubin C. S. et al. In addition, as a test compound, a compound prepared in Examples mentioned above or a commercially available compound was used. 3T3-L1 cells (ATCC CCL-92.1) were suspended in a 10% fetal bovine serum (manufactured by Bio Whittaker)-containing Dulbecco's modified Eagle's medium (manufactured by Sigma, D6046) containing 200 μM ascorbic acid so as to have a density of 4×10^3 cells/mL, and the suspension was put in each well of a 12-well microtiter plate in an amount of 2 ml per well. The cells were cultured at 37° C. for 7 days in the presence of 5% carbon dioxide gas. On the seventh day, the medium was exchanged with a 10% fetal bovine serum (manufactured by Bio Whittaker)-containing Dulbecco's modified Eagle's medium containing 200 μM ascorbic acid and 0.25 μM dexamethasone, and a test compound dissolved in dimethyl sulfoxide in a concentration shown in each of Tables 16 to 19 was added to each well. Here, there were set a group with addition of 4 μL of an aqueous solution containing 5 mg/mL insulin (manufactured by TAKARA BIO INC.) as a positive control, and a group with addition of dimethyl sulfoxide as a negative control. After 45 hours, the medium was exchanged with a 10% fetal bovine serum-containing Dulbecco's modified Eagle's medium containing 200 μM ascorbic acid. A test compound, 2 μL of an aqueous solution containing 5 mg/mL insulin as a positive control, or dimethyl sulfoxide as a negative control was put to each well in the same concentration. The cells were cultured for additional 7 days. In addition, the medium was exchanged on after 2 days and after 5 days, and at that time, a test compound, 2 μL of an aqueous solution containing 5 mg/mL insulin as a positive control, or dimethyl sulfoxide as a negative control was put to each well in the same concentration.
The amount of triglyceride in the adipocytes was determined as an index of induction of differentiation into mature adipocytes, and also, as the evaluation of insulin-mimetic action.
After the termination of the culture, the medium was removed, and the cells were washed twice with a phosphate buffered saline. One milliliter of a solvent of hexane:isopropanol=3:2 was added to the cells. The mixture was allowed to stand at room temperature for 30 minutes, and thereafter the supernatant was collected. The procedures were repeated again, and 2 mL of the supernatant was concentrated to dryness. The precipitate was dissolved in 100 μL of isopropanol, and the amount of triglyceride contained in 10 μL of the solution was determined using a triglyceride E-test (manufactured by Wako Pure Chemical Industries, Ltd., code 432-40201). In addition, all the determinations were carried out twice. The action for induction of differentiation was calculated by the following calculation formula, and shown by four ranks of +++, ++, + and +/−. • S: Amount of triglyceride in the presence of a test compound; • N: Amount of triglyceride in the negative control; and • P: Amount of triglyceride in the positive control; X=(S−N)/(P−N) (Judgment of Action for Induction of Differentiation)

For experiment [2], the system named is mature adipocytes (3T3-L1 cells). As to the kind of experiment: Enhancing action on glucose uptake (2-deoxyglucose) into mature adipocytes. To be noted: Mus musculus, 3T3-L1, X=(S−N)/(P−N) of 2-deoxyglucose uptake, P=insulin 1 μg/mL, read-out: Enhancing Action on Glucose Uptake. The experiment is classed as cell-based. The protocol:
The induction of differentation into nature adipocytes was carried out by partially modifying the above-mentioned method of Rubin C. S. et al. 3T3-L1 cells (ATCC CCL-92.1) were suspended in a 10% fetal bovine serum (manufactured by Bio Whittaker)-containing Dulbecco's modified Eagle's medium (manufactured by Sigma, D6046) containing 200 μM ascorbic acid so as to have a density of 4×10^3 cells/mL, and the suspension was put in each well of a collagen type I-coated 12-well plate (Iwaki Glass Co., Ltd., code 4815-010) in an amount of 2 mL per well. The cells were cultured at 37° C. for 7 days in the presence of 5% carbon dioxide gas. On the seventh day, the medium was exchanged with 2 mL of a 10% fetal bovine serum (manufactured by Bio Whittaker)-containing Dulbecco's modified Eagle's medium containing 200 μM ascorbic acid, 0.25 μM dexamethasone, 10 μg/mL insulin (manufactured by TAKARA BIO INC.) and 0.5 mM 3-isobutyl-1-methylxanthine (manufactured by nacalai tesque, 19624-86). After 45 hours, the medium was exchanged with 2 mL of a 10% fetal bovine serum-containing Dulbecco's modified Eagle's medium containing 200 μM ascorbic acid and 5 μg/mL insulin. The medium was exchanged on after 2 days and 5 days, and the cells were cultured for 7 days, to give mature adipocytes.
As the evaluation of the enhancing action on glucose uptake, and also as the evaluation of the insulin-mimetic action, the amount of 2-deoxyglucose uptake into mature adipocytes during the stimulation of the test compound in the adipocytes was determined. As a test compound, a compound prepared in the Examples mentioned above or a commercially available compound was used.
After the termination of the culture, the medium was removed, and the cells were washed twice with a 0.1% (w/v) bovine serum albumin (manufactured by Sigma, A8022)-containing Dulbecco's modified Eagle's medium. Thereafter, 1 mL of the same medium containing a test compound in a concentration shown in each of Tables 20 to 23 was put to each well. The cells were cultured overnight at 37° C. in the presence of 5% carbon dioxide gas. Here, a group without containing the test compound was set as a negative control. After the overnight culture, the cells were washed twice with a HEPES buffer (140 mM NaCl, 5 mM KCl, 2.5 mM MgSO4, 1 mM CaCl2, 20 mM HEPES-Na (pH 7.4)). The amount 0.9 mL of the buffer containing a test compound in the same concentration was added to each well. The cells were cultured at 37° C. for 75 minutes. During the culture, as a positive control, there was set a group with addition of insulin to the well without addition of a test compound at a point 45 minutes passed so as to have a final concentration of 1 μg/mL. Thereafter, 100 μL of a HEPES buffer containing 0.5 μCi/mL 2-deoxy-[1,2-^3H(N)]-glucose (manufactured by PerkinElmer Life Sciences Inc., NET549A) and 1 mM 2-deoxyglucose (manufactured by nacalai tesque, 10722-11) was added thereto. The cells were cultured at 37° C. for additional 10 minutes. After the termination of the culture, the supernatant was removed, and the cells were washed three times with a phosphate buffer cooled to 4° C. Thereafter, 0.5 mL of a 1% Nonidet P-40-containing phosphate buffer was added to lyse the cells, whereby 2-deoxy-[1,2-^3H(N)]-glucose subjected to uptake into the cells was eluted. The radioactivity was determined with a liquid scintillation counter LS6500 (manufactured by Beckmann) using 25 μL of the supernatant with Ultima Gold (manufactured by PerkinElmer Life Sciences Inc., 6013329) as a scintillation cocktail. The enhancing action on glucose uptake was calculated by the following calculation formula, and shown by four ranks of +++, ++, + and +/−. • S: Amount of 2-deoxyglucose uptake in the presence of a test compound; • N: Amount of 2-deoxyglucose uptake in the negative control; and • P: Amount of 2-deoxyglucose uptake in the positive control; X=(S−N)/(P−N) (Judgment of Enhancing Action for 2-Deoxyglucose Uptake)

As to `COc1cc(O)c(C(=O)/C=C/c2ccc(O)cc2)cc1CC=C(C)C` [Bavachalcone, 4,2′-Dihydroxy-4′-methoxy-5′-prenylchalcone], in experiment [1], the activation at 4 µM is 15 to 30% and the activation at 13 µM lay in the range of 30 to 60%. For the same compound, in experiment [2], the activation at 10 µM was in the range of 30 to 60% and the activation at 30 µM is over 100%.
As for `COc1ccc(C(=O)/C=C/c2ccc(O)cc2)c(O)c1` [Compound (C020), 4,2′-dihydroxy-4′-methoxychalcone], in experiment [1], the activation at 4 µM was 30 to 60% and the activation at 13 µM lay in the range of 60 to 100%. In addition, in experiment [2], the activation at 10 µM was 30 to 60% and the activation at 30 µM was in the range of 60 to 100%.
As to `COc1ccc(C(C)=O)c(O)c1CC=C(C)C` [Compound (C026), 2′-hydroxy-3′-prenyl-4′-methoxyacetophenone], the activation at 1.3 µM in experiment [1] (1.3 μM) fell in the range of 30 to 60%. Moreover, in experiment [1], the activation at 4 µM was 60 to 100% and the activation at 13 µM lay within 60 to 100%. In experiment [2], the activation at 3 µM lay in the range of 15 to 30%, the activation at 10 µM was in the range of 30 to 60% and the activation at 30 µM was in the range of 30 to 60%.
With `COc1cc(O)c(C(C)=O)cc1CC=C(C)C` [Compound (C027), 2′-hydroxy-4′-methoxy-5′-prenylacetophenone], in experiment [1], the activation at 4 µM is 15 to 30% and the activation at 13 µM is 30 to 60%. In experiment [2], the activation at 10 µM is 15 to 30% and the activation at 30 µM lay in the range of 30 to 60%.
For the compound `COc1ccc(C(=O)/C=C/c2ccc(OC(C)=O)cc2)c(OC(C)=O)c1CC=C(C)C` [Compound (C032), 4,2′-diacetoxy-3′-prenyl-4′-methoxychalcone], in experiment [1] (1 μM), the activation at 1 µM lay in the range of 60 to 100%. Also, in experiment [1], the activation at 3 µM is over 100% and the activation at 10 µM is over 100%. In experiment [2], the activation at 3 µM is over 100%, the activation at 10 µM was over 100% and the activation at 30 µM is over 100%.
As for `COc1ccc(C(=O)CCc2ccc(O)cc2)c(O)c1CCC(C)C` [Compound (C033), 1-(2-hydroxy-3-(3-methylbutyl)-4-methoxyphenyl)-3-(4-hydroxyphenyl)-propan-1-one], in experiment [1], the activation at 3 µM was over 100% and the activation at 10 µM was over 100%. Moreover, in experiment [2], the activation at 3 µM lay within 30 to 60%, the activation at 10 µM lay in the range of 30 to 60% and the activation at 30 µM lay within 60 to 100%.
Consider `COc1ccc(/C=C/C(=O)c2ccc(OC)c(CC=C(C)C)c2O)cc1` [Compound (C035), 4,4′-dimethoxy-2′-hydroxy-3′-prenylchalcone], for which, in experiment [1], the activation at 3 µM lay within 60 to 100% and the activation at 10 µM was over 100%. In addition, in experiment [2], the activation at 10 µM was in the range of 30 to 60% and the activation at 30 µM lay within 60 to 100%.
For the compound `COc1ccc(C(C)=O)c(O)c1C/C=C(\C)CCC=C(C)C` [Compound (C038), 2′-hydroxy-3′-geranyl-4′-methoxyacetophenone], in experiment [1], the activation at 3 µM was in the range of 30 to 60% and the activation at 10 µM was over 100%. Besides, in experiment [2], the activation at 10 µM lay within 30 to 60% and the activation at 30 µM lay in the range of 60 to 100%.
As for `COc1ccc(C(C)=O)c(O)c1CCC(C)C` [Compound (C041), 2′-hydroxy-3′-(3-methylbutyl)-4′-methoxyacetophenone], in experiment [1], the activation at 3 µM lay within 30 to 60% and the activation at 10 µM is over 100%. Besides, the activation at 30 µM in experiment [2] is over 100%.
Turning to `CC(=O)c1ccc(OC2CCCCO2)c(CC=C(C)C)c1O` (stereo not drawn) [Compound (C044), 2′-hydroxy-3′-prenyl-4′-tetrahydropyranyloxyacetophenone], in experiment [1], the activation at 3 µM was 30 to 60% and the activation at 10 µM lay in the range of 60 to 100%. In experiment [2], the activation at 10 µM fell in the range of 30 to 60% and the activation at 30 µM was over 100%.
`COc1ccc(/C=C/C(=O)c2c(OC)cc(OC)c(CC=C(C)C)c2O)cc1` [Compound (C046), 4,4′,6′-trimethoxy-2′-hydroxy-3′-prenylchalcone]: in experiment [1], the activation at 3 µM was in the range of 60 to 100% and the activation at 10 µM was over 100%. Besides, in experiment [2], the activation at 3 µM lay in the range of 15 to 30%, the activation at 10 µM is over 100% and the activation at 30 µM is over 100%.
For `CCOc1ccc(C(C)=O)c(O)c1CC=C(C)C` [Compound (C047), 2′-hydroxy-3′-prenyl-4′-ethoxyacetophenone], the activation at 10 µM in experiment [1] was 30 to 60%. Further, the activation at 30 µM in experiment [1] (30 μM) is 60 to 100%. In experiment [2], the activation at 3 µM fell in the range of 30 to 60%, the activation at 10 µM was in the range of 60 to 100% and the activation at 30 µM was over 100%.
